For one test, the target named is T1, full length GRK5 (Homo sapiens, UniProt P34947).
T1 construct: 6/2 fold concentrated full length GRK5 (Millipore, #14-714) in reaction buffer; purchased Millipore 14-714
Kind of test: GRK5 kinase activity assay, ADP Glo Kinase Assay technology (Promega). The class given is biochemical. The settings on record: group II; ADP Glo Kinase Assay (Table 9-B). The procedure: The maximal compound assay concentration was set to 100 μM, representing the compound assay concentration used in the primary screen.
Increasing concentrations of GRK5 are incubated together with 100 μM ATP in the absence and presence of 10 μM casein in a reaction buffer. Within this incubation non-phosphorylated casein is converted into phosphorylated casein and ATP is converted into ADP. Thereafter nonconverted ATP is digested into AMP by addition of the ADP-Glo™ Reagent. Subsequently the ADP that is produced by GRK5 activity is phosphorylated back to ATP by addition of Promega Kinase Detection Reagent. These ATP levels serve as measure for the GRK5 activity and are quantified by a luciferase/luciferin reaction.
For GRK5 kinase activity assay, the following protocol was used:
The reaction buffer used was composed of: 20 mM MES pH 6.0, 1 mM DTT, 10 mM MgCl2, 0.01% Tween20 and the reaction volume was 6 μL.
Firstly 4 μL 6/4 fold concentrated substrate and 6/4 fold concentrated ATP in 1 fold concentrated reaction buffer are added to each well of the assay plate. Subsequently 67 nL […] concentrated test compound in 100% DMSO are added to each well except to C− and C+ wells using pin tool. Then 67 nL 100% DMSO are pipetted to C− (no kinase, no compound) and C+ (no compound) wells using pin-tool and 2 μL reaction buffer are added to C− wells. […] After incubation for 120 min. at room temperature 6 μL ADP-Glo™ Reagent (ADP Glo™ Kinase Assay Kit: Promega, V9101) are added to each well to stop the kinase reaction and deplete the unconsumed ATP. After a second incubation for 40 min. at room temperature 12 μL of Kinase Detection Reagent are added to convert ADP to ATP and start luciferase/luciferin reaction for detection of ATP. […] Finally, after incubation for 40 min at room temperature the luminescence intensity was measured.
The activity of the compounds was classified according to IC50 for binding sites of Grk5 into the following ranges:
8800 Customer compounds were screened for their ability to inhibit the enzymatic activity of GRK5. Screening was performed using the ADP Glo™ Kinase Assay technology (Promega). The small molecular weight compounds were delivered at 10 mM stock concentration and were tested at a final assay concentration of 100 μM.
IC50 values were determined in triplicates at 12 concentrations with a dilution factor of three. Triplicates were measured on three different assay plates. The maximal compound assay concentration was set to 100 μM representing the compound assay concentration used in the primary screen. A larger maximal compound assay concentration could not be achieved since the maximal compound concentration on the compound plates was 10 mM (>1% DMSO concentration in the assay).
(In general: In ADP-Glo the light output rises with the ADP produced.)

Test [1] relates to beta-TC6 insulinoma cells. The experiment in a line: Insulin release by beta-TC6 cells, rat/mouse insulin ELISA, high glucose. The class given is cell-based. The settings on record: for activation at 5 µM: Mus musculus, group II, 2 h, high glucose (4.5 g/L), % increase in regard to DMSO control (set at 0%); for activation at 5 µM / Insulin release by beta-TC6 cells compared with positive control Sunitinib: 5 μM; for Insulin release by beta-TC6 cells compared with positive control Sunitinib: high glucose. As to the method: (§1) Release of insulin was detected using a rat/mouse insulin ELISA.
After incubation, the supernatant of the beta-TC6 insulinoma cells was diluted 1:20. The insulin release was measured with rat/mouse insulin ELISA (Merck Millipore Darmstadt, Cat. # EZRMI-13K) by following the manufacture protocol. The enzyme activity of the horseradish peroxidase of the immobilized biotinylated antibodies was monitored spectrophotometrically by the increased absorbency at 490 nm, and corrected by the absorbency at 610 nm.
as §1
The effect on the insulin release of each kinase depletion was monitored by using a rat/mouse insulin ELISA.
For the validation of the negative modulating kinases SCYL1, GRK5, and ADCK1, the target genes were depleted using four different siRNA-sequences each (FIG. 2A-D). The gene-depletion was measured via mRNA-levels after 72 hours while the insulin release was measured using a rat/mouse insulin ELISA after two hours incubation.
On the technique in general: An ELISA detects its analyte on a solid surface through an enzyme-linked reagent.

For the next test, the system named is 3T3-L1 cells. Kind of test: Cell viability assay (CellTiter-Glo / automated cell number) in 3T3-L1. As to conditions: Mus musculus, read-out: Inhibition of cell viability IC50. The class given is cell-based. From the text: (§2) Luminescent cell viability assay. For the detection of cell viability, the CellTiter-Glo® Luminescent Cell Viability Assay was used. This test is based on a luciferase reaction to measure the amount of ATP in cells. This correlates directly with the number of cells and their viability because cells lose the ability to synthesize ATP directly after e.g. loss of membrane integrity or a cytotoxic event. The protocol was adapted to 24 well plates and to the different culture conditions resulting in a standardized protocol which is described below. Cell lysis, inhibition of endogenous ATPases and detection of ATP was performed by adding the CellTiter-Glo® Reagent to the culture wells. Per well, 100 μl reagent were mixed with the same volume of proper Medium. Lysing of the cells took place by 10 min incubation at RT and moderate shaking. Three times 50 μl cell lysate was transferred into a white 96 well plate to eliminate stray light, and the bioluminescence was measured.
(§3) In a 96 well dish 10000 cells per well (100 μl) were seed and treated for 72 h. At the end of the treatment, cells were fixed with 4% paraformaldehyde in PBS for 15 minutes, permeabilized with 0.1% triton-X 100 in PBS for 15 minutes and stained with Hoechst 33342 (20 μg/ml in PBS; dilute from 20 mg/ml stock) directly to cells in 100 μl medium in PBS for 30 minutes at 37° C. Stained cells were imaged with a Cellomics ArrayScan VT I automated microscope. Images were analyzed with vHCS Scan Target Activation software v5.1.2 to identify apoptotic cells. Six fields per well of a 96 well plate we re-imaged at 10× magnification. First, cells were identified by their nuclei staining in channel 1 of Cellomics and their amount. Staining intensity was plotted and compared between NT controls and compound treated cells. Finally, data was obtained using vHCS View software v 5.1.2 and the numbers of cells present in the 96 well were identified as “Valid Object Count” whereas the percentage of infection was determined as “% selected”. IC50 values have been calculated accordingly.

For the next test, the system named is beta TC6 cells. The experiment in a line: Cell viability assay (CellTiter-Glo / automated cell number) in beta TC6. The class given is cell-based. As to conditions: Mus musculus, read-out: Inhibition of cell viability IC50.
From the text: as §2, §3
In general terms: In ATP-based viability assays light output follows the ATP content of the culture.

For a further test, the system named is C2C12 cells. The experiment in a line: Cell viability assay (CellTiter-Glo / automated cell number) in C2C12. As to conditions: Mus musculus, read-out: Inhibition of cell viability IC50. The class given is cell-based.
From the text: as §2, §3

The next test has as its system HepG2 cells. Kind of test: Cell viability assay (CellTiter-Glo / automated cell number) in HepG2. The class given is cell-based. The settings on record: Homo sapiens, read-out: Inhibition of cell viability IC50.
From the text: as §2, §3

T1 sequence (P34947 whole entry): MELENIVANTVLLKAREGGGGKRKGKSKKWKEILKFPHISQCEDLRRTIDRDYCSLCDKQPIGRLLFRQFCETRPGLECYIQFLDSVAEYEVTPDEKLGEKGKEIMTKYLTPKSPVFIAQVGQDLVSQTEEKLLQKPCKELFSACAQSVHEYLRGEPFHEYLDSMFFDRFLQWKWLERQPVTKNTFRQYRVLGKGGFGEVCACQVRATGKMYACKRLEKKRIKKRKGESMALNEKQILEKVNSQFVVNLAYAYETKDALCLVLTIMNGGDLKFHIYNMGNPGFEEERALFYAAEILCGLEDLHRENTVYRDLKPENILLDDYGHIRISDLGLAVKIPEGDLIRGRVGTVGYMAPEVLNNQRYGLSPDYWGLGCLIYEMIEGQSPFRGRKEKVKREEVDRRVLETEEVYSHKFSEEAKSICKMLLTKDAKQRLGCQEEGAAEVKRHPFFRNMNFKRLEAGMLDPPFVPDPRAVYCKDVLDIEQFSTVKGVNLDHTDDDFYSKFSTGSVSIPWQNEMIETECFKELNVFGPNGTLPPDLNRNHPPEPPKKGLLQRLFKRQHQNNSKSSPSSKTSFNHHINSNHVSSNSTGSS

As to `Cc1cccc(C(C)NC(=O)c2ccc3c(c2)/C(=C/c2[nH]c(C)c(C(=O)N4CCN(C)CC4)c2C)C(=O)N3)c1` (stereo not drawn) [II.51, (3Z)-3-({3,5-dimethyl-4-[(4-methylpiperazin-1-yl)carbonyl]-1H-pyrrol-2-yl}methylene)-N-[1-(3-methylphenyl)ethyl]-2-oxoindoline-5-carboxamide], the IC50 at full length GRK5 is 2 to 10 µM; with 3T3-L1 cells it was 1.36 µM; with beta TC6 cells, 1.97 µM; in the test on C2C12 cells it was 3.34 µM; with HepG2 cells, 1.11 µM. The molecule further yielded an activation at 5 µM in test [1] (Beta-TC6, 2 h) of 252%.
Molecule `CCC(NC(=O)c1ccc2c(c1)/C(=C/c1[nH]c(C)c(CCC(=O)O)c1C)C(=O)N2)c1ccc(Cl)cc1` (stereo not drawn) [II.132, (3Z)-3-(5-{5-[1-(4-chloro-phenyl)-propylcarbamoyl]-2-oxo-1,2-dihydro-indol-3-ylidenemethyl}-2,4-dimethyl-1H-pyrrol-3-yl)-propionic acid] came in with an IC50 on full length GRK5 of 0.1 to 1 µM. For the same molecule, in test [1] (Beta-TC6, 2 h), the activation at 5 µM amounted to 117%.
In the same order, the values of `CCC(NC(=O)c1ccc2c(c1)/C(=C/c1[nH]c(C)c(CCC(=O)O)c1C)C(=O)N2)c1ccc(F)c(F)c1` (stereo not drawn) [II.133, (3Z)-3-(5-{5-[1-(3,4-difluoro-phenyl)-propylcarbamoyl]-2-oxo-1,2-dihydro-indol-3-ylidenemethyl}-2,4-dimethyl-1H-pyrrol-3-yl)-propionic acid] are 0.1 to 1 µM and 131%.
Take `Cn1c(-c2cccnc2)cc2c(Nc3cccc(C(F)(F)F)c3)nccc21` [compound 243, 1-methyl-2-(3-pyridyl)-N-[3-(trifluoromethyl)phenyl]pyrrolo[3,2-c]pyridin-4-amine]: the “Insulin release by beta-TC6 cells compared with positive control Sunitinib” value in test [1] was “better effect on the insulin release by beta-TC6 cells than the positive control Sunitinib”.
Still for that read-out and setting: the result for `NC(=O)c1ccc(Nc2cc3[nH]c(-c4cccc(F)c4)cc3cn2)cc1` [compound 6, 4-[[2-(3-fluorophenyl)-1H-pyrrolo[3,2-c]pyridin-6-yl]amino]benzamide] reads “level similar to Sunitinib”.
With `CCC(NC(=O)c1ccc2c(c1)/C(=C/c1[nH]c(C)c(C(=O)NCCN3CCCC3)c1C)C(=O)N2)c1ccc(F)c(F)c1` (stereo not drawn) [II.10, (3Z)-N-[1-(3,4-difluorophenyl)propyl]-3-({3,5-dimethyl-4-[(2-pyrrolidin-1-ylethyl)carbamoyl]-1H-pyrrol-2-yl}methylene)-2-oxoindoline-5-carboxamide], the half-inhibitory concentration (IC50) is 0.1 to 1 µM at full length GRK5; above 10 µM with 3T3-L1 cells; 0.67 µM in the test with beta TC6 cells; 3.23 µM with C2C12 cells; 0.63 µM with HepG2 cells. Also, the activation at 5 µM in test [1] (Beta-TC6, 2 h) was found to be 164%.
`CCN(CC)CCNC(=O)c1c(C)[nH]c(/C=C2\C(=O)Nc3ccc(F)cc32)c1C` [Sunitinib, reference compound] came in with an activation at 5 µM in test [1] (Beta-TC6) of 80%. Also, the “Increase in insulin release” value in test [1] (positive control of the siRNA validation, Sunitinib 5 μM, beta-TC6) is 76.52±13%.
For `Cc1[nH]c(/C=C2\C(=O)Nc3ccc(C(=O)N[C@H](C)c4ccc(Cl)cc4)cc32)c(C)c1C(=O)N1CCCC1` [II.67, (3Z)-N-[(1R)-1-(4-chlorophenyl)ethyl]-3-{[3,5-dimethyl-4-(pyrrolidin-1-ylcarbonyl)-1H-pyrrol-2-yl]methylene}-2-oxoindoline-5-carboxamide], the IC50 at full length GRK5 is 0.1 to 1 µM; with 3T3-L1 cells, 1.52 µM; in the test on beta TC6 cells it was 1.94 µM; with C2C12 cells it was 3.94 µM; in the test with HepG2 cells, 1.47 µM. The molecule further yielded an activation at 5 µM in test [1] (Beta-TC6, 2 h) of 159%.
Turning to `COc1cccc([C@@H](C)NC(=O)c2ccc3c(c2)/C(=C/Nc2ccc(CN4CCCCC4)cc2)C(=O)N3)c1` [II.79, (3Z)-N-[(1R)-1-(3-methoxyphenyl)ethyl]-2-oxo-3-({[4-(piperidin-1-ylmethyl)phenyl]amino}methylene)indoline-5-carboxamide], the IC50 is below 0.1 µM on full length GRK5; above 10 µM in the test on 3T3-L1 cells; 2.05 µM in the test with beta TC6 cells; above 10 µM in the test with C2C12 cells; 2.08 µM in the test on HepG2 cells.
Turning to `CC[C@@H](NC(=O)c1ccc2c(c1)/C(=C/c1[nH]c(C)c(C(=O)NCCN(CC)CC)c1C)C(=O)N2)c1ccccc1` [II.61, (3Z)-3-[(4-{[2-(diethylamino)ethyl]carbamoyl}-3,5-dimethyl-1H-pyrrol-2-yl)methylene]-2-oxo-N-[(1R)-1-phenylpropyl]indoline-5-carboxamide], the IC50 against full length GRK5 was below 0.1 µM; in the test with 3T3-L1 cells, 0.6 µM; with beta TC6 cells, 0.44 µM; with C2C12 cells it was 1.49 µM; in the test with HepG2 cells it was 0.33 µM.
In the same order, the values of `CC[C@@H](NC(=O)c1ccc2c(c1)/C(=C/c1[nH]c(C)c(C(=O)N3CCN(C)CC3)c1C)C(=O)N2)c1ccccc1` [II.7, (3Z)-3-({3,5-dimethyl-4-[(4-methylpiperazin-1-yl)carbonyl]-1H-pyrrol-2-yl}methylene)-2-oxo-N-[(1R)-1-phenylpropyl]indoline-5-carboxamide] are 2 to 10 µM, 1.07 µM, 1.19 µM, 1.31 µM and 0.69 µM.
The like results for `CC[C@@H](NC(=O)c1ccc2c(c1)/C(=C/c1[nH]c(C)c(C(=O)NCCN3CCCC3)c1C)C(=O)N2)c1ccccc1` [II.6, (3Z)-3-({3,5-dimethyl-4-[(2-pyrrolidin-1-ylethyl)carbamoyl]-1H-pyrrol-2-yl}methylene)-2-oxo-N-[(1R)-1-phenylpropyl]indoline-5-carboxamide] were, in that order, 0.1 to 1 µM, 1.7 µM, 0.42 µM, 1.49 µM and 0.27 µM.
In the same order, the values of `CCOC(=O)[C@H](C)NC(=O)c1c(C)[nH]c(/C=C2\C(=O)Nc3ccc(C(=O)O)cc32)c1C` [II.136] are 0.1 to 1 µM, 2.69 µM, above 10 µM, above 10 µM and above 10 µM.

The IC50 is the concentration that inhibits the measured activity by half.

The record behind these values is patent publication US9458463B2, “Method for treatment of diabetes by a small molecule inhibitor for GRK5” (MAX-PLANCK-GESELLSCHAFT ZUR FÖRDERUNG DER WISSENSCHAFTEN …, priority 2010, dated 2016).
